According to patent US20230028658A1, “EXPANDED DOSAGE REGIMENS FOR INTEGRIN INHIBITORS” (Pliant Therapeutics, Inc., priority 2021, published 2023):

Molecular target: recombinant human integrin αvβ6 (Homo sapiens, UniProt P06756+P18564)
Assay: Solid phase integrin αvβ6 binding assay
Conditions: read-out: αvβ6 Inhibition IC50 (nM) - range
Procedure: Microplates were coated with recombinant human integrin αvβ6 (2 μg/mL) in PBS (100 μL/well 25° C., overnight). The coating solution was removed, washed with wash buffer (0.05% Tween 20; 0.5 mM MnCl2; in 1×TBS). The plate was blocked with 200 μL/well of Block Buffer (1% BSA; 5% sucrose; 0.5 mM MnCl2; in 1×TBS) at 37° C. for 2 h. Dilutions of testing compounds and recombinant TGFβ1 LAP (0.67 μg/mL) in binding buffer (0.05% BSA; 2.5% sucrose; 0.5 mM MnCl2; in 1×TBS) were added. The plate was incubated for 2 hours at 25° C., washed, and incubated for 1 hour with Biotin-Anti-hLAP. Bound antibody was detected by peroxidase-conjugated streptavidin. The IC50 values for testing compounds were calculated by a four-parameter logistic regression.
The compounds tested were compound samples prepared according to procedures described in the Synthetic Examples section, with the stereochemical purity as indicated in the Examples.

Sequence of recombinant human integrin αvβ6 (P06756 31-992 limits assumed): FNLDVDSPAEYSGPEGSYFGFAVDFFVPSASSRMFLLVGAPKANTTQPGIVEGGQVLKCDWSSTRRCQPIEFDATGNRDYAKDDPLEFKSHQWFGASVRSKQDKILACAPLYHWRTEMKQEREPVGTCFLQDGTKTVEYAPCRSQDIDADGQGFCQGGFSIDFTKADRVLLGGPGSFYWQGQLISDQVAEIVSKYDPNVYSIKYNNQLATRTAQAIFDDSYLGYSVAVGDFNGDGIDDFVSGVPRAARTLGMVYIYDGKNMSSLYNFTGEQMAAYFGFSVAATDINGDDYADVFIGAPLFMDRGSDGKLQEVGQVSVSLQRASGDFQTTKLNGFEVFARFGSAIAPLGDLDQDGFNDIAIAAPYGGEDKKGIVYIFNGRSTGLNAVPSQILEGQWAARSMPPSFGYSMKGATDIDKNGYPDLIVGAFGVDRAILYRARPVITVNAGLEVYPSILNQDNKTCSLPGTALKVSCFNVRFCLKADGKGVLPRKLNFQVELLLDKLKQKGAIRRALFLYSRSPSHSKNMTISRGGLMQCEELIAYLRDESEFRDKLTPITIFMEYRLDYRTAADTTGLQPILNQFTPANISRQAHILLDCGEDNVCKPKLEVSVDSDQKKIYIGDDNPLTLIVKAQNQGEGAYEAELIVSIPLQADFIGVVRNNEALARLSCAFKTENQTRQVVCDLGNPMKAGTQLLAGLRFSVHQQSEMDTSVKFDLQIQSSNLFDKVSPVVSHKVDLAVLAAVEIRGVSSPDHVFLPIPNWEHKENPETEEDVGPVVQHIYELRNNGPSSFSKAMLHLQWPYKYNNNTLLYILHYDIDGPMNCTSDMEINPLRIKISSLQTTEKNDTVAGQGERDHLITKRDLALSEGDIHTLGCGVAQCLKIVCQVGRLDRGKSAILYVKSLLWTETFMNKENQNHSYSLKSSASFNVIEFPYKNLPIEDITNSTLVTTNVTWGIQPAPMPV
Sequence of recombinant human integrin αvβ6 (P18564 22-707 limits assumed): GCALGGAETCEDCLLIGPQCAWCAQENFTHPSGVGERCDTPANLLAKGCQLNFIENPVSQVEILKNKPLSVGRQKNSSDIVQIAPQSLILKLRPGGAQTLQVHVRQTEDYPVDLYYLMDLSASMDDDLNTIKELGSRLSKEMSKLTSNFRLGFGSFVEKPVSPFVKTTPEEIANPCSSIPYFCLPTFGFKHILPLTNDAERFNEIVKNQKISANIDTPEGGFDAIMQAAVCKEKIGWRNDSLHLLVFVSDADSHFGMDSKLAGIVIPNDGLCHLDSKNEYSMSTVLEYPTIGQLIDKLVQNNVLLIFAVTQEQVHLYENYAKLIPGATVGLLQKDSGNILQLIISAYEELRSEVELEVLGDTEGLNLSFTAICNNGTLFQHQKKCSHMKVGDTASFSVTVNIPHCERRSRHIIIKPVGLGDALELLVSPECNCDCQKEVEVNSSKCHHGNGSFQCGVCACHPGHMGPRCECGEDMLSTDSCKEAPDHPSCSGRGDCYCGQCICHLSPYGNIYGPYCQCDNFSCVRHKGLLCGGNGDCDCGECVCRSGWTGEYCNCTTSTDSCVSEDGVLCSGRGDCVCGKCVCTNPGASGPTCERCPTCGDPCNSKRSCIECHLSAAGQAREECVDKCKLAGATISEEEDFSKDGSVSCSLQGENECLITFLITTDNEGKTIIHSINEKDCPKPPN

Compared with `O=C(O)[C@H](CCN(CCCCc1ccc2c(n1)NCCC2)C1CC1)Nc1ccncn1` [Compound 2, (S)-4-(cyclopropyl(4-(5,6,7,8-tetrahydro-1,8-naphthyridin-2-yl)butyl)amino)-2-(pyrimidin-4-ylamino) butanoic acid], `CO[C@H](C)CN(CCCCc1ccc2c(n1)NCCC2)CC[C@H](Nc1ccncn1)C(=O)O` [Compound 106, (S)-4-(((R)-2-methoxypropyl) (4-(5,6,7,8-tetrahydro-1,8-naphthyridin-2-yl)butyl)amino)-2-(pyrimidin-4-ylamino) butanoic acid] is lower in IC50: 250 to 1000 nM for the first, less than 50 nM for the second. The second is the more potent here.

`COCCN(CCCCc1ccc2c(n1)NCCC2)CC[C@H](Nc1ncnc2cc(F)ccc12)C(=O)O` [Compound 7, (S)-2-((7-fluoroquinazolin-4-yl)amino)-4-((2-methoxyethyl) (4-(5,6,7,8-tetrahydro-1,8-naphthyridin-2-yl)butyl)amino) butanoic acid] and `COCCN(CCCCc1ccc2c(n1)NCCC2)CC[C@H](Nc1ncnc2cccnc12)C(=O)O` [Compound 16, (S)-4-((2-methoxyethyl) (4-(5,6,7,8-tetrahydro-1,8-naphthyridin-2-yl)butyl)amino)-2-(pyrido[3,2-d]pyrimidin-4-ylamino) butanoic acid] cannot be ordered by IC50: less than 50 nM for the first, less than 50 nM for the second.

`CO[C@@H](C)CN(CCCCc1ccc2c(n1)NCCC2)CC[C@H](Nc1ncnc2ccccc12)C(=O)O` [Compound 25, (S)-4-(((S)-2-methoxypropyl) (4-(5,6,7,8-tetrahydro-1,8-naphthyridin-2-yl)butyl)amino)-2-(quinazolin-4-ylamino) butanoic acid] and `CO[C@H](C)CN(CCCCc1ccc2c(n1)NCCC2)CC[C@H](Nc1ncnc2ccccc12)C(=O)O` [Compound 62, (S)-4-(((R)-2-methoxypropyl) (4-(5,6,7,8-tetrahydro-1,8-naphthyridin-2-yl)butyl)amino)-2-(quinazolin-4-ylamino) butanoic acid] cannot be ordered by IC50: less than 50 nM for the first, less than 50 nM for the second.

`CS(=O)(=O)CCN(CCCCc1ccc2c(n1)NCCC2)CC[C@H](Nc1ncnc2ccccc12)C(=O)O` [Compound 27, (S)-4-((2-(methylsulfonyl)ethyl) (4-(5,6,7,8-tetrahydro-1,8-naphthyridin-2-yl)butyl)amino)-2-(quinazolin-4-ylamino) butanoic acid] and `O=C(O)[C@H](CCN(CCO)CCCCc1ccc2c(n1)NCCC2)Nc1ncnc2ccccc12` [Compound 75, (S)-4-((2-hydroxyethyl) (4-(5,6,7,8-tetrahydro-1,8-naphthyridin-2-yl)butyl)amino)-2-(quinazolin-4-ylamino) butanoic acid] cannot be ordered by IC50: less than 50 nM for the first, less than 50 nM for the second.

First: O=C(O)[C@H](CCN(CCCCc1ccc2c(n1)NCCC2)CCC(F)F)Nc1ncnc2ccccc12 [Compound 29, (S)-4-((3,3-difluoropropyl) (4-(5,6,7,8-tetrahydro-1,8-naphthyridin-2-yl)butyl)amino)-2-(quinazolin-4-ylamino) butanoic acid]
Second: COCCN(CCCCc1ccc2c(n1)NCCC2)CC[C@H](Nc1ccnc2ccccc12)C(=O)O [Compound 36, (S)-4-((2-methoxyethyl) (4-(5,6,7,8-tetrahydro-1,8-naphthyridin-2-yl)butyl)amino)-2-(quinolin-4-ylamino) butanoic acid]
The IC50 of the first is lower: less than 50 nM for the first, greater than 1000 nM for the second. The first is the more potent here.

First: COCCN(CCCCc1ccc2c(n1)NCCC2)CC[C@H](Nc1nccc2ccccc12)C(=O)O [Compound 34, (S)-2-(isoquinolin-1-ylamino)-4-((2-methoxyethyl) (4-(5,6,7,8-tetrahydro-1,8-naphthyridin-2-yl)butyl)amino) butanoic acid]
Second: Cn1ncc2c(N[C@@H](CCN(CCCCc3ccc4c(n3)NCCC4)CCOc3ccccc3)C(=O)O)ncnc21 [Compound 82, (S)-2-((1-methyl-1H-pyrazolo[3,4-d]pyrimidin-4-yl)amino)-4-((2-phenoxyethyl) (4-(5,6,7,8-tetrahydro-1,8-naphthyridin-2-yl)butyl)amino) butanoic acid]
The IC50 of the first is higher: greater than 1000 nM for the first, less than 50 nM for the second.

First: COCCN(CCCCc1ccc2c(n1)NCCC2)CC[C@H](Nc1cc(-n2cccn2)ncn1)C(=O)O [Compound 44, (S)-2-((6-(1H-pyrazol-1-yl)pyrimidin-4-yl)amino)-4-((2-methoxyethyl) (4-(5,6,7,8-tetrahydro-1,8-naphthyridin-2-yl)butyl)amino) butanoic acid]
Second: COC[C@@H](F)CN(CCCCc1ccc2c(n1)NCCC2)CC[C@H](Nc1ccncn1)C(=O)O [Compound 127, (S)-4-(((S)-2-fluoro-3-methoxypropyl) (4-(5,6,7,8-tetrahydro-1,8-naphthyridin-2-yl)butyl)amino)-2-(pyrimidin-4-ylamino) butanoic acid]
The IC50 of the first is lower: less than 50 nM for the first, 250 to 1000 nM for the second.

Compared with `CO[C@H](C)CN(CCCCc1ccc2c(n1)NCCC2)CC[C@H](Nc1ncc(C#N)cn1)C(=O)O` [Compound 68, (S)-2-((5-cyanopyrimidin-2-yl)amino)-4-(((R)-2-methoxypropyl) (4-(5,6,7,8-tetrahydro-1,8-naphthyridin-2-yl)butyl)amino) butanoic acid], `COC[C@@H](F)CN(CCCCc1ccc2c(n1)NCCC2)CC[C@H](Nc1ncc(C#N)cn1)C(=O)O` [Compound 84, (S)-2-((5-cyanopyrimidin-2-yl)amino)-4-(((S)-2-fluoro-3-methoxypropyl) (4-(5,6,7,8-tetrahydro-1,8-naphthyridin-2-yl)butyl)amino) butanoic acid] is higher in IC50: less than 50 nM for the first, 250 to 1000 nM for the second. The first is the more potent here.

Compared with `CO[C@H](C)CN(CCCCc1ccc2c(n1)NCCC2)CC[C@H](Nc1cc(-c2ccccc2)ncn1)C(=O)O` [Compound 80, (S)-4-(((R)-2-methoxypropyl) (4-(5,6,7,8-tetrahydro-1,8-naphthyridin-2-yl)butyl)amino)-2-((6-phenylpyrimidin-4-yl)amino) butanoic acid], `COC[C@@H](F)CN(CCCCc1ccc2c(n1)NCCC2)CC[C@H](Nc1cc(-c2ccccc2)ncn1)C(=O)O` [Compound 128, (S)-4-(((S)-2-fluoro-3-methoxypropyl) (4-(5,6,7,8-tetrahydro-1,8-naphthyridin-2-yl)butyl)amino)-2-((6-phenylpyrimidin-4-yl)amino) butanoic acid] is higher in IC50: less than 50 nM for the first, greater than 1000 nM for the second.

Compared with `CO[C@H](C)CN(CCCCc1ccc2c(n1)NCCC2)CC[C@H](Nc1ncncc1-c1ccccc1)C(=O)O` [Compound 81, (S)-4-(((R)-2-methoxypropyl) (4-(5,6,7,8-tetrahydro-1,8-naphthyridin-2-yl)butyl)amino)-2-((5-phenylpyrimidin-4-yl)amino) butanoic acid], `O=C(O)[C@H](CCN(CCCCc1ccc2c(n1)NCCC2)CC(F)F)Nc1ncncc1-c1ccccc1` [Compound 119, (S)-4-((2,2-difluoroethyl) (4-(5,6,7,8-tetrahydro-1,8-naphthyridin-2-yl)butyl)amino)-2-((5-phenylpyrimidin-4-yl)amino) butanoic acid] is higher in IC50: less than 50 nM for the first, greater than 1000 nM for the second. The first is the more potent here.

First: Cn1ncc2c(N[C@@H](CCN(CCCCc3ccc4c(n3)NCCC4)CC(F)F)C(=O)O)ncnc21 [Compound 88, (S)-4-((2,2-difluoroethyl) (4-(5,6,7,8-tetrahydro-1,8-naphthyridin-2-yl)butyl)amino)-2-((1-methyl-1H-pyrazolo[3,4-d]pyrimidin-4-yl)amino) butanoic acid]
Second: Cn1ncc2c(N[C@@H](CCN(CCCF)CCCCc3ccc4c(n3)NCCC4)C(=O)O)ncnc21 [Compound 136, (S)-4-((3-fluoropropyl) (4-(5,6,7,8-tetrahydro-1,8-naphthyridin-2-yl)butyl)amino)-2-((1-methyl-1H-pyrazolo[3,4-d]pyrimidin-4-yl)amino) butanoic acid]
The IC50 of the first is higher: greater than 1000 nM for the first, less than 50 nM for the second. The second is the more potent here.

First: Cn1ncc2c(N[C@@H](CCN(CCCCc3ccc4c(n3)NCCC4)CCS(C)(=O)=O)C(=O)O)ncnc21 [Compound 101, (S)-2-((1-methyl-1H-pyrazolo[3,4-d]pyrimidin-4-yl)amino)-4-((2-(methylsulfonyl)ethyl) (4-(5,6,7,8-tetrahydro-1,8-naphthyridin-2-yl)butyl)amino) butanoic acid]
Second: Cn1ncc2c(N[C@@H](CCN(CCCCc3ccc4c(n3)NCCC4)CCOc3ccc(F)cc3)C(=O)O)ncnc21 [Compound 123, (S)-4-((2-(4-fluorophenoxy)ethyl) (4-(5,6,7,8-tetrahydro-1,8-naphthyridin-2-yl)butyl)amino)-2-((1-methyl-1H-pyrazolo[3,4-d]pyrimidin-4-yl)amino) butanoic acid]
The IC50 of the first is higher: 50 to 250 nM for the first, less than 50 nM for the second.

Compared with `CO[C@H](C)CN(CCCCc1ccc2c(n1)NCCC2)CC[C@H](Nc1ncc(C2CC2)cn1)C(=O)O` [Compound 124, (S)-2-((5-cyclopropylpyrimidin-2-yl)amino)-4-(((R)-2-methoxypropyl) (4-(5,6,7,8-tetrahydro-1,8-naphthyridin-2-yl)butyl)amino) butanoic acid], `O=C(O)[C@H](CCN(CCCCc1ccc2c(n1)NCCC2)CCC(F)F)Nc1ncc(C2CC2)cn1` [Compound 135, (S)-2-((5-cyclopropylpyrimidin-2-yl)amino)-4-((3,3-difluoropropyl) (4-(5,6,7,8-tetrahydro-1,8-naphthyridin-2-yl)butyl)amino) butanoic acid] is higher in IC50: less than 50 nM for the first, 50 to 250 nM for the second. The first is the more potent here.

`O=C(O)[C@H](CCN(CCCCc1ccc2c(n1)NCCC2)CCC(F)F)Nc1ncc(Br)cn1` [Compound 131, (S)-2-((5-bromopyrimidin-2-yl)amino)-4-((3,3-difluoropropyl) (4-(5,6,7,8-tetrahydro-1,8-naphthyridin-2-yl)butyl)amino) butanoic acid] gave an IC50 of 50 to 250 nM.
